In patent US20230241060A1, “GLUCOCORTICOID-SPARING AGENT” (METRIOPHARM AG, priority 2020, published 2023):
Several values for one entry are separate records, joined by “and”; a condition that tells them apart may be missing. Equal values may be shown once. Read-outs that look alike come from different tables or passages of the source.

Tests used:
[1] = Schumann et al. 2020; cited from earlier work
[2] = Case report rheumatoid arthritis; format: in vivo, human; settings: person, 10 mg prednisone retard tablets once daily
Text: A person was diagnosed with rheumatoid arthritis a few months after experiencing first symptoms.

[3] = test system: IL-6 production, LPS stimulated RAW264.7 cells; assay: IL-6 levels (ELISA) in supernatants of LPS stimulated RAW264.7 cells; format: cell-based, mouse
Method: Raw264.7 cells (leukemia transformed monocytic-macrophage cell line derived from mouse ascitic fluid) were grown in Dulbecco's Modified Eagle's Medium enriched with glutamine and fetal calf serum and maintained at 37° C. and 5% CO2.
Two experimental parts were performed.

[4] = Body weight in pilot study of collagen induced arthritis (CIA) in mice; settings: MP1032 1 mg/kg/day alone, intraperitoneally

Nc1cccc2c(=O)[nH][nH]c(=O)c12
tolerability [1]: well tolerated

C[C@]12C=CC(=O)C=C1CC[C@@H]1[C@@H]2C(=O)C[C@@]2(C)[C@H]1CC[C@]2(O)C(=O)CO [prednisone]
pain and inflammation ([2]; rheumatoid arthritis, within months): improved | body weight [2]: started to gain weight

C[C@@H]1C[C@H]2[C@@H]3CCC4=CC(=O)C=C[C@]4(C)[C@@]3(F)[C@@H](O)C[C@]2(C)[C@@]1(O)C(=O)CO [Dexamethasone, dexamethasone, reference compound]
Percentage inhibition of IL-6 production ([3]; Exp Part 1, dexamethasone 0.01 μM alone): 34.66% | inhibition at 0.01 µM ([3]; Mus musculus, RAW264.7, Exp Part 1, dexamethasone 0.01 μM alone, read-out: Percentage inhibition of IL-6 production): 34.7% | inhibition at 0.1 µM ([3]; Mus musculus, RAW264.7, Exp Part 1, dexamethasone 0.1 μM alone, read-out: Percentage inhibition of IL-6 production): 63.8% | inhibition at 1 µM ([3]; Mus musculus, RAW264.7, Exp Part 1, dexamethasone 1 μM alone, read-out: Percentage inhibition of IL-6 production): 87% | inhibition at 0.0003 µM ([3]; Mus musculus, RAW264.7, Exp Part 2, dexamethasone 0.0003 μM alone, read-out: Percentage inhibition of IL-6 production): 1.57% | inhibition at 0.0006 µM ([3]; Mus musculus, RAW264.7, Exp Part 2, dexamethasone 0.0006 μM alone, read-out: Percentage inhibition of IL-6 production): 4.07% | inhibition at 0.0012 µM ([3]; Mus musculus, RAW264.7, Exp Part 2, dexamethasone 0.0012 μM alone, read-out: Percentage inhibition of IL-6 production): 0% | inhibition at 0.0025 µM ([3]; Mus musculus, RAW264.7, Exp Part 2, dexamethasone 0.0025 μM alone, read-out: Percentage inhibition of IL-6 production): 4.16% | inhibition at 0.005 µM ([3]; Mus musculus, RAW264.7, Exp Part 2, dexamethasone 0.005 μM alone, read-out: Percentage inhibition of IL-6 production): 30.6% | inhibition at 0.01 µM ([3]; Mus musculus, RAW264.7, Exp Part 2, dexamethasone 0.01 μM alone, read-out: Percentage inhibition of IL-6 production): 36.3%

Nc1cccc2c(=O)[nH][nH]c(=O)c12.[Na]
Percentage inhibition of IL-6 production ([3]; Exp Part 1, MP1032 0.025 mM alone, sodium salt): 17% and 17.03% | Percentage inhibition of IL-6 production ([3]; Exp Part 1, MP1032 0.05 mM alone, sodium salt): 25.8% and 25.77% | Percentage inhibition of IL-6 production ([3]; Exp Part 1, MP1032 0.1 mM alone): 44.85% | Percentage inhibition of IL-6 production ([3]; Exp Part 1, MP1032 0.25 mM alone): 53.95% | Percentage inhibition of IL-6 production ([3]; Exp Part 1, MP1032 0.5 mM alone): 56.70% | Percentage inhibition of IL-6 production ([3]; Exp Part 1, MP1032 1 mM alone): 72.75% | Percentage inhibition of IL-6 production ([3]; Exp Part 2, MP1032 0.025 mM alone): 1.57% | Percentage inhibition of IL-6 production ([3]; Exp Part 2, MP1032 0.05 mM alone): 0% | Percentage inhibition of IL-6 production ([3]; Exp Part 2, MP1032 0.1 mM alone): 0% | Percentage inhibition of IL-6 production ([3]; Exp Part 2, MP1032 0.25 mM alone): 13.85% | Percentage inhibition of IL-6 production ([3]; Exp Part 2, MP1032 0.5 mM alone): 47.52% | Percentage inhibition of IL-6 production ([3]; Exp Part 2, MP1032 1 mM alone): 67.30% | Body weight on day 45, median [4]: (23.6, n = 11) g
